Reference: US20180258381A1, “BIO-LAMINA BIOREACTORS AND METHODS OF MAKING AND USING THE SAME” (Oregon State University, priority 2015, published 2018)

Key:
[1] = tested on: M. trichosporium OB3b; test: Chemostat inhibition with cyclopropanol; assay type: cell-based
From the text: In one embodiment, a seven-liter chemostat was used to grow a culture of M. trichosporium OB3b without copper present, therefore expressing sMMO. The temperature-controlled jacketed reactor has multiple input and output lines for gas and liquid feed, a paddle stirrer for agitation, sensors for continuous monitoring of pH and DO, and metered oxygen delivery tied to a DO concentration set-point. The reactor was inoculated with a dilute culture of M. trichosporium OB3b and operated in batch mode for approximately one month before continuous fluid flow was established. […] A second two-liter chemostat growing a culture of M. trichosporium OB3b with copper present, expressing pMMO, also was used.
Cyclopropanol was added under batch-flow conditions with no methane being fed to the reactor to limit methanol competition for MDH and increase the effectiveness of the inhibitor. Methanol accumulated in solution for about 24 hours and then was slowly washed from the reactor (FIG. 35A). The microbial methanol production rate in the chemostat peaked within 24 hours at about 0.5 mg/(L*h) and was essentially zero after two days (FIG. 35B).
The activity results remained stable at the above values for 5 days after inhibition with cyclopropanol present throughout. […] Complete shutdown of methane oxidation within the chemostat most likely occurred due to very successful inhibition of MDH resulting in a loss of reducing power needed for MMO operation. […] By day 8, methane utilization and oxygen uptake were restored in the chemostat and the biomass concentration increased back to pre-inhibition values. […] The chemostat inhibition experiment is being conducted again with modifications to the concentration of inhibitor and conditions of inhibition in attempt to produce conditions for continuous methanol production and to maintain higher methane oxidation rates throughout.
In the first two embodiments an estimated 75 μg/L cyclopropanol (cPOH) was added to the chemostat. Methanol production by M. trichosporium OB3b within the chemostat lasted less than 12 hours. Following initial methanol production, cell growth ceased and cells began washing out of the reactor. Once signs of washout were observed formate was added to the chemostat to a concentration of 10 mM. […] In subsequent attempts at methanol production, smaller cyclopropanol additions were used in an attempt to inhibit the organisms enough to produce methanol without disrupting their ability to grow fast enough to avoid washout. […] In each case, a peak in cumulative methanol production was reached followed by a decline indicating the recovery of the methanol oxidation capability of the culture (FIG. 43). […] Since the cyclopropanol concentrations used in these examples were below the detection limit of the analytical method, the cyclopropanol fate in the chemostat is uncertain in some embodiments.
Throughout each experiment specific oxygen utilization rate (SOUR) tests were conducted with samples from the chemostat as indicators of MDH and methane monooxygenase (MMO) activity (FIGS. 44A and 44B). Methanol SOURs indicate essentially immediate inhibition of MDH activity, although it took up to 1 hour to reach a minimum in activity. Significant methane inhibition is indicated in the methane SOURs and it occurs with essentially the same magnitude and time scale as the methanol SOUR results. The recovery of MDH indicated by SOUR tests correlated with the observed reduction in cumulative methanol production in the chemostat. […] A peak in DO concentration was reached first followed by a peak in pH and lastly methanol concentration. The increase in pH and DO is expected to be the result of incomplete methane oxidation and a subsequent reduction in CO2 production.

[2] = tested on: M. trichosporium OB3b culture; test: Column packed with culture immobilized in alginate beads, cPOH inhibition; assay type: cell-based
Description: In parallel with the BLP reactor runs, the response of methane consumption and MeOH production in a column packed with M. trichosporium OB3b culture immobilized in alginate beads (0.4 mg cell protein total) was evaluated. The column was incubated under batch conditions for 18 hours with cPOH, then quickly flushed with ˜10 pore volumes of dilute growth media, before dilute media flow containing ˜200 μM CH4 was begun at a rate of 41 ml/hour (FIG. 38). Over the course of day 1, 80±10% of influent CH4 was consumed and MeOH accumulated with an efficiency (MeOH produced/CH4 consumed) of 94±21%. […] To see if MeOH production could be renewed, the column was again exposed to cPOH for 18 hours as previously described. On days 3, 4, and 7, 66±8% of influent CH4 was consumed and MeOH accumulated with an efficiency of >90%.

[3] = tested on: OB3b cells; test: Long term packed column experiment, cyclopropanol inhibition; assay type: cell-based, M. trichosporium OB3b
Description: In some examples, OB3b cells were harvested from the chemostats described herein to make alginate beads for a long term packed column experiment. Total cell mass within the column was 300 mg with and the column void space was 6 mL. The flow rates of a methane solution (2 mg/L) were varied and the inlet and outlet concentrations were measured for a methane consumption efficiency curve shown in FIG. 45A.
An increase in methane consumption with an increase in residence time was observed. The column was then inhibited with cyclopropanol (1/10 dilution) for 18 hours. A flow rate of 2 mL/min was used for all further testing. Methane consumption decreased from 0.21 μmol/hr to 0.15 μmol/hr after the inhibition, while 0.13 μmol/hr of methanol was produced. After 24 hours methanol production decreased to 0.06 μmol/hr and methane consumption increased to 0.24 μmol/hr. The inhibition process was repeated for 18 hours and methanol production evaluated under the same operating conditions. The maximum methanol production rates lasted about 3 hours, and then declined, while methane consumption was maintained. Overall, the column responded similarly to two inhibitions ran at constant flow for two weeks with little problem.

[4] = tested on: methanol dehydrogenase (MDH); test: MeOH consumption of fresh sMMO expressing culture exposed to cPOH; assay type: cell-based, M. trichosporium OB3b; settings: highest concentration of cPOH added with 1 mM MeOH
Description: In the absence of CH4, sMMO expressing OB3b in alginate beads were incubated 18 h with cyclopropane (CP, FIG. 36A) and produced an oxidized product hypothesized to be cyclopropanol (cPOH). cPOH is more water soluble than CP, enabling removal of CP by purging the headspace with air (FIG. 36B). Work is progressing on the identification cPOH by mass spec analysis. […] Inhibition of MDH was confirmed by exposing fresh non-inhibited sMMO expressing M. trichosporium OB3b to cPOH (FIG. 36D).
In the absence of cPOH 1 mM MeOH was consumed <10 minutes, but when cPOH was added with 1 mM MeOH there was a concentration dependent effect on the rate of MeOH consumption. At low and medium cPOH concentrations, significant amounts of MeOH were consumed before the initial time points could be taken.

[5] = tested on: MDH; test: cPOH inhibition of MDH of culture immobilized in alginate beads; assay type: cell-based
From the text: The examples described above can be used to determine optimal cPOH concentrations and exposure time to maximize MeOH production. In some examples, cPOH inhibition is rapid and irreversible. In some examples, cPOH inhibited MDH of culture immobilized in alginate beads in less than 100 seconds, and MDH inhibition was maintained after alginate beads were rinsed to remove cPOH.

[6] = post-inhibition microbial activity sampling
[7] = day 1, after 18 hours with cPOH
[8] = days 3, 4, and 7, after second 18 hours cPOH exposure
[9] = after inhibition with cyclopropanol (1/10 dilution) for 18 hours, flow 2 mL/min

OC1CC1 [cPOH, cyclopropanol]
duration of methanol production ([1]; addition of 2-8 mg/L cyclopropanol): 2 to 6 h | effects on pH and DO concentrations within the chemostat ([1]; cPOH additions to reach 0.5 μg/L or lower): no discernable effects | duration of methanol production within the chemostat ([1]; estimated 75 μg/L cyclopropanol added): less than 12 hours | peak microbial methanol production rate in the chemostat ([1]; peaked within 24 hours after cyclopropanol addition): about 0.5 mg/(L*h) | reduction in batch methane oxidation rate [1, 6]: 94% | reduction in ethylene oxidation rate [1, 6]: 97% | reduction in formate-dependent oxygen uptake rate [1, 6]: 20-25% | reduction in methanol-dependent oxygen uptake rate [1, 6]: 95% | MeOH accumulation efficiency (MeOH produced/CH4 consumed) [2, 7]: 94±21% | influent CH4 consumed [2, 7]: 80±10% | MeOH accumulation ([2]; day 2): no MeOH accumulated | influent CH4 consumed ([2]; day 2): 67±6% | MeOH accumulation efficiency (MeOH produced/CH4 consumed) [2, 8]: > 90% | influent CH4 consumed [2, 8]: 66±8% | methane consumption ([3]; 24 hours after inhibition): 0.24 µmol/h | methanol production ([3]; 24 hours after inhibition): 0.06 µmol/h | methane consumption [3, 9]: 0.15 µmol/h | methanol produced [3, 9]: 0.13 µmol/h | effect on rate of MeOH consumption [4]: significantly slowed MeOH consumption | time to inhibit MDH [5]: less than 100 seconds
